Assays:
[1] = test system: RBL cells; assay: TNF-α secretion of activated RBL cells; assay type: cell-based, rat; settings: activated RBL cells (FIG. 19G)
[2] = test system: BMMC; assay: Measurements of secreted mediators (ELISA) in activated BMMC; assay type: cell-based, mouse; settings: for Granzyme-B secretion: BMMC (data not shown); for cytokine secretion: IL-6 / cytokine secretion: TNF-α: immunologically activated BMMC, 6 μM (FIG. 21C)
Experimental: 1×106 BMMC were immunologically activated as described above. After IgE incubation, the cells were washed three times in PBS and incubated with DNP-albumin (Sigma-Aldrich) for 30 mM in complete growth medium. Supernatant was collected and Granzyme B and TNFα content were measured using ELISA Kits (eBioscience).

[3] = test system: plasma histamine; assay: In vivo histamine release assay, passive systemic IgE-mediated anaphylaxis model; settings: 3.5 h before DNP-BSA challenge
Experimental: C3H 6-7 week male and female WT mice were purchased from Jackson Lab (Cambridge, Mass., USA), mice were fed a regular diet and with drinking water ad libitum. Experiments were approved by The Hebrew University Ethical Committee for Animal Experimentation.
WT C3H mice were sensitized with 3 μg murine IgE anti-DNP mAb SPE-7 by means of intravenous injection in the tail vein. Twenty-four hours later, mice were treated with 40 mg/kg of static dissolved in corn oil or corn oil alone for 2.5 hours, then mice were challenged with i.v. injection of DNP-BSA (250 μg per mouse). 100 μl of blood was collected immediately and added to an equal volume of pre-cold Alsever's Solution. Blood was centrifuged 2000 g for […] and plasma supernatant was collected. Plasma histamine levels were determined by using competitive ELISA (IBL International Gmbh, Hamburg, Germany).
STAT3's role in vivo was investigated by evaluating the response to allergic stimulation in Stattic-treated mice. The passive systemic IgE-mediated anaphylaxis model was used. Mice were injected (i.v.) with IgE anti-DNP. Twenty four hours later they were injected (i.p.) with Stattic (80 mg/kg) or corn oil which was used as control. Three and a half hours later the mice were challenged with DNP-BSA for 1.5 minutes. Plasma was collected, and histamine levels were measured by competitive ELISA. Histamine secretion in Stattic-treated mice was 43% less than that in control mice (FIG. 17, p<0.05).
Mitocur-1/3 effectiveness in vivo was investigated by evaluating the response to allergic stimulation in Mitocur-1/3-treated mice. The passive systemic IgE-mediated anaphylaxis model was used. Mice were injected (i.v.) with IgE anti-DNP. Twenty four hours later they were injected (i.p.) with Mitocur-1 (80 mg/kg) and Mitocur-3 (40 mg/kg). Corn oil was used as control. Three and a half hours later the mice were challenged with DNP-BSA for 1.5 minutes. Plasma was collected, and histamine levels were measured by competitive ELISA. Histamine secretion in Mitocur-1-treated mice was 35% less than that in control mice (FIG. 22A, p<0.05).

[4] = test system: caspase3; assay: Western blot of caspase3 / cleaved caspase3 (apoptosis) in RBL cells; assay type: cell-based, rat; settings: RBL cells
Experimental: (§1) RBL cells and mitochondrial pellets were lysed by the addition of lysis buffer (50 mM Tris-HCl pH 7.4, 1% Nonidet P-40, 0.25% Na-deoxycholate, 150 mM NaCl, 1 mM EDTA, 1 mM PMSF) supplemented with 15 μl protease inhibitor (Sigma-Aldrich). Cells and mitochondria were vortexed and incubated on ice for 15 min. The lysates were then centrifuged at 14,000 g for 15 min and pellets were discarded. The protein concentration of each sample was determined using Bradford Reagent (Sigma-Aldrich). Proteins were resolved by 10-15% SDS-PAGE under reducing conditions and transferred to polyvinylidene difluoride membranes (Millipore Billerica, Ma). The membranes were incubated in 5% fat-free milk and TBST (10 mM Tris-HCl, pH 7.4, 150 mM NaCl, 0.1% Tween 20) for 1 h and then in 5% BSA and TBST containing various dilutions of primary Abs for 18 h at 4° C. The membranes were washed three times with TBST for 5 mM before and after each incubation with secondary Ab. The proteins were detected with the appropriate secondary Ab (1 h; room temperature) coupled to HRP-conjugated goat anti-rabbit or anti-mouse Ab and visualized by chemiluminescence according to the manufacturer's instructions (Pierce).

[5] = test system: BMMC; assay: β-Hexosaminidase release assay (degranulation) in BMMC; assay type: cell-based, mouse; settings: activated BMMC, 6 μM
Experimental: (§2) RBL-2H3 cells were maintained in RPMI 1640 medium as previously described1. Bone marrow was isolated from 5-6 week-old mice, and BMMC were cultured in RPMI medium supplemented with 20 ng/ml interleukin-3 (IL-3) and 20 ng/ml SCF as previously described2, 3. Cells were generally grown for a minimum of 4 weeks and used when >90% of the population expressed FcεRI. BMMC and RBL cells were sensitized first with anti-DNP IgE monoclonal antibody (SPE-7; Sigma-Aldrich Corp.) and then challenged with DNP-BSA (Sigma-Aldrich Corp.). IgE antibody was centrifuged (18,000 g, 5 min) before use to remove aggregates. […] For glycolysis elimination cells were maintained in glucose-free RPMI supplemented with 10% dialyzed fetal calf serum and 5 mM galactose.
(§3) 1×104 RBL or 3×104 BMMC were immunologically activated as described above. After IgE incubation, the cells were washed three times with 5 mL of degranulation buffer (NaCl 130 mM, KCl 5 mM, Glucose 5.6 mM, MgCl2 1 mM, CaCl2 1.2 mM, Hepes pH 7.4 10 mM, BSA 0.1%) and resuspended in 200 μL of the same buffer with DNP-albumin for 30 min. The release of β-hexosaminidase was determined in triplicates in a 96-well plate. Aliquots (20 μL) of supernatants and cell lysates were incubated for 30 minutes with 100 μL of substrate solution (1.3 mg/mL p-nitrophenyl-b-D-2-acetamido-2-deoxyglucopyranozide in 0.1 M citrate [pH 4.51]). The reaction was stopped by the addition of 200 μL of 0.2 M glycine (pH 10.7). The plate OD was read in an enzyme-linked immunosorbent assay (ELISA) reader at a wavelength of 405 nm Percent release values for each experimental condition were calculated3.

[6] = test system: RBL cells; assay: Oxygen consumption (Seahorse XF analyzer) in RBL cells; assay type: cell-based, rat; settings: RBL cells, 3 h
Experimental: as §2
Oxygen consumption rate (OCR) was measured using an XF24 extracellular flux analyzer (Seahorse Biosciences, North Billeric, Mass., USA).

[7] = test system: caspase3; assay: Western blot of cleaved caspase3 in BMMC; assay type: cell-based, mouse; settings: 6 μM (FIG. 21D)
[8] = test system: RBL cells; assay: β-Hexosaminidase release assay (degranulation) in RBL cells; assay type: cell-based, rat; settings: for Emax at 6 µM: Rattus norvegicus, 3 h incubation, read-out: maximum effect, reduction of degranulation
Experimental: as §2, §3

[9] = test system: c-myc; assay: Western blot of c-myc (STAT3 target gene) in RBL cells; assay type: cell-based, rat; settings: 3 h; for c-myc levels compared to control: 6 μM; for c-myc levels: concentrations higher than 6 μM
Experimental: as §1
The levels of cleaved caspase3 were measured as an indicator of apoptosis, which could occur as a result of inhibiting STAT3's target genes. […] Since higher concentrations reduced the levels of c-myc and enhanced the levels of cleaved caspase3, the inventors concluded that 6 μM Mitocur-1/3 or lower would be suitable for the present invention. As these molecules are intended to be used in a time frame greater than 3 h, RBL cells were incubated with the same concentrations of Mitocur-1/3 for 24 h and the levels of cleaved caspase3 were determined by Western blot analysis.

[10] = test system: RBL cells; assay: ATP determination (ATPLite luminescence) in RBL cells; assay type: cell-based, rat; settings: RBL cells
Experimental: as §2
ATP levels were measured using the ATPLite luminescence-based assay according to the manufacturer's instructions (Perkin Elmer, Waltham, Mass., USA).

[11] = test system: CBMC; assay: β-Hexosaminidase release assay (degranulation) in human cord blood-derived mast cells; assay type: cell-based; settings: 12 μM, 3 h incubation
[12] = cited from earlier work
[13] = concentrations higher than 6 μM, 3 h

Row | Structure (SMILES) | TNF-α secretion [1] | Granzyme-B secretion [2] | cytokine secretion: IL-6 [2] | cytokine secretion: TNF-α [2] | cleaved caspase levels ([4]; 6 μM, 3 h) | cleaved caspase3 levels [4, 13] | degranulation levels ([5]; 3 h incubation) | degranulation levels ([5]; 24 h incubation) | oxygen consumption ([6]; 100 μM) | oxygen consumption ([6]; 6-50 μM) | cleaved caspase3 levels [7] | Emax at 6 µM ([8]; RBL cells) [%] | c-myc levels compared to control [9] | c-myc levels [9] | melting point [°C] | ATP levels ([10]; 100 μM, 3 h (data not shown)) | ATP levels ([10]; 6-50 μM, 3 h) | also measured
1 | COc1cc(/C=C/C(=O)CC(=O)/C=C/c2ccc(OCCC[P+](c3ccccc3)(c3ccccc3)c3ccccc3)c(OC)c2)ccc1OCCC[P+](c1ccccc1)(c1ccccc1)c1ccccc1 [Mitocur-1, 1,7-Bis{3-methoxy-4-[3-(triphenylphosphonium)propoxy]-phenyl}hepta-1,6-diene-3,5-dione dichloride] | completely abolished | abolished | totally abolished | totally abolished | no change | enhanced | reduced | reduced | reduced | No significant reduction | no change | > 50 | no change | reduced | 130 to 140 | reduced | No significant reduction | histamine secretion less than in control mice ([3]; Mitocur-1 80 mg/kg i.p.): 35%
2 | O=C(/C=C/c1ccc(OCCC[P+](c2ccccc2)(c2ccccc2)c2ccccc2)cc1)CC(=O)/C=C/c1ccc(OCCC[P+](c2ccccc2)(c2ccccc2)c2ccccc2)cc1 [Mitocur-3, 1,7-{4-[3-(triphenylphosphonium)propoxy]phenyl}hepta-1,6-diene-3,5-dione dichloride] | completely abolished | abolished | totally abolished | totally abolished | no change | enhanced | reduced | reduced | reduced | No significant reduction | no change | > 50 | no change | reduced | 145 to 160 | reduced | No significant reduction | degranulation levels [11]: successfully reduced; decrease in histamine secretion ([3]; mice, Mitocur-3 40 mg/kg i.p.): 32.4%; cleaved caspase3 levels ([4]; 6 μM, 24 h): slight change
3 | COc1cc(/C=C/C(=O)CC(=O)/C=C/c2ccc(O)c(OC)c2)ccc1O [curcumin, (1E,6E)-1,7-Bis(4-hydroxy-3-methoxyphenyl)-1,6-heptadiene-3,5-dione] |  |  |  |  |  |  |  |  |  |  |  |  |  |  |  |  |  | degranulation (β-hexosaminidase release) ([8]; RBL cells, curcumin 12.5, 25, 50 and 100 μM, 10 min (FIG. 19A)): significantly reduced; degranulation levels ([8]; activated RBL cells, 10 min incubation with curcumin (FIG. 8)): completely abolished; pKa of the two phenolic OH groups [12]: 10-10.5
